Each structure is given as a SMILES string.

A short description of the data set: gradient 5% acetonitrile 3 min, to 50% in 2 min, to 85% in 15 min, held 3 min, 100 µL/min. The settings on record: column: Zorbax Extend-C18 2.1 x 50 mm; eluents: water / acetonitrile, 0.1% formic acid. The gist of the method:
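In both positive and negative ionization mode, a quadrupole time-of-flight mass spectrometer coupled to HPLC analyzed pure standards run in mixtures of ~100 molecules. The Zorbax Extend-C18 column (2.1 × 50 mm, 1.8 μm) was operated at 100 μL/min with water and acetonitrile, each containing 0.1% formic acid. The dead volume was 40 μL and the dwell volume 900 μL. Retention time came from adduct peaks that were computationally picked and individually inspected by hand.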
With `COc1ccc(Cl)cc1N1CC(c2nc(-c3ccncc3)no2)CC1=O` (stereo not given), the RP-LC retention time stood at 752 s.

In turn, `CCn1cc(C(=O)Nc2ccc(C)c(C)c2)c2cccnc21` had an RP-LC retention time of 937 s.

The compound `CN(C)S(=O)(=O)N1CCC(F)(c2nc(-c3ccccc3)no2)CC1` registered an RP-LC retention time of 1030 s.

`Cc1noc(C)c1S(=O)(=O)NCC(c1cccnc1)c1cn(C)c2ccccc12` (stereo not given) showed an RP-LC retention time of 700 s.

On to `O=c1n(Cc2cccc(C(F)(F)F)c2)nc2ccc(-c3ccccc3)nn12`, for which the RP-LC retention time worked out at 887 s.

As for `CCCCn1c(=O)c2c(nc3n2CCCCN3c2ccc(OCC)cc2)n(C)c1=O`, the RP-LC retention time came to 1050 s.

For `CCc1noc(CC2CCOC3(CCN(S(=O)(=O)c4ccc(Cl)cc4)CC3)C2)n1` (stereo not given), the RP-LC retention time worked out at 1070 s.

With `Cc1ccc(Cl)cc1S(=O)(=O)NCC(O)Cc1ccccc1` (stereo not given), the RP-LC retention time was determined as 858 s.

`CC(C)N1CCN(C(=O)c2cc(-c3ccccc3)n[nH]2)CC1`: the RP-LC retention time worked out at 589 s.

As to `Cc1cc(C)n(-c2ccnc(NCCc3ccccn3)n2)n1`, the RP-LC retention time was determined as 596 s.

As for `COc1cccc2sc(N(C)CC(=O)Nc3ccc(-n4cnnn4)cc3)nc12`, the RP-LC retention time was 729 s.

The compound `Cn1nc(-c2nc(C3CC3)no2)c2c1CCN(C(=O)c1ccccc1Br)C2` displayed an RP-LC retention time of 821 s.

`O=C(c1ccc(F)cc1F)N1CCC2(CC1)N=C(c1ccc(Cl)cc1)NO2` returned an RP-LC retention time of 900 s.

`COc1ccccc1N1CCN(Cc2nc3nc(C)cc(N4CCOCC4)n3n2)CC1` showed an RP-LC retention time of 602 s.

As to `CC(C)NC(=O)c1nc(-c2cn(-c3cccc(F)c3)nn2)no1`, the RP-LC retention time came out at 834 s.

The compound `Cc1nc(-c2ccc(C(=O)N3CCC(C)CC3)cc2)cs1` displayed an RP-LC retention time of 904 s.

With `O=C1CC(c2ccccc2)N(S(=O)(=O)c2cccc3nsnc23)CCCCCCN1` (stereo not given), the RP-LC retention time worked out at 886 s.

Compound `COc1ccc(F)cc1S(=O)(=O)NCC1(C)CCOCC1` gave an RP-LC retention time of 785 s.

`C=CCn1ccc2c(OCC(=O)Nc3cc(C)on3)cccc2c1=O` gave an RP-LC retention time of 750 s.

The compound `CCOc1cc(C)c(C(C)C)cc1S(=O)(=O)NCc1ccccn1` gave an RP-LC retention time of 766 s.

Compound `Cc1nnc(-c2nnc(N3CCC(C)CC3)c3ccccc23)o1` yielded an RP-LC retention time of 824 s.

`Cc1cc(C)c(C)c(S(=O)(=O)N2CCCC2c2nc(-c3cccc(F)c3)no2)c1C` (stereo not given) displayed an RP-LC retention time of 1360 s.

Turning to `Cc1cc2nn(CC(=O)NCC3CCCO3)c(=O)n2c(Nc2ccc(F)cc2)n1` (stereo not given), the RP-LC retention time was determined as 722 s.

For `CSc1ccc(-c2nc3cnccn3c2NC2CCCC2)cc1`, the RP-LC retention time worked out at 914 s.

In turn, `O=C(Nc1cc(-c2ccccc2)[nH]n1)c1ccc(Cl)cc1` gave an RP-LC retention time of 925 s.

The compound `O=C(NCc1ccco1)c1ccc2c(c1)CC(=O)N2Cc1ccc(F)cc1` returned an RP-LC retention time of 794 s.

As for `Cc1nn2c(CNS(=O)(=O)Cc3cc(F)cc(F)c3)c(-c3ccccc3)nc2s1`, the RP-LC retention time amounted to 929 s.

`CCOC(=O)CNC(=O)N1CCCC1c1cccc(C)c1` (stereo not given) gave an RP-LC retention time of 784 s.

Take `CN(C)c1cnc(-n2cc(NC(=O)CCCc3ccccc3)cn2)nc1`: the RP-LC retention time is 724 s.

In turn, `O=C(NCc1ccc2c(c1)OCO2)C(=O)NCC1OCCN1S(=O)(=O)c1ccccc1` (stereo not given) yielded an RP-LC retention time of 752 s.

In the case of `Cc1cc(N(CCCl)CCCl)ccc1/C=N/NC(=O)Cc1cc(=O)oc2cc(O)ccc12`, the RP-LC retention time stood at 862 s.

Compound `CSc1ccccc1CN1CCC(CNC(=O)c2ccco2)CC1` yielded an RP-LC retention time of 548 s.

With `Cn1cnc2c(C(=O)N3CCN(c4ncccn4)CC3)nn(-c3ccc(Cl)cc3)c2c1=O`, the RP-LC retention time was 766 s.

As to `O=C(CN1CCN(Cc2ccc(F)cc2)C1=O)NCCCn1cccn1`, the RP-LC retention time turned out to be 672 s.

On to `COc1ccc(-c2nnc(COc3cccc(NC(=O)c4cncc(Br)c4)c3)o2)cc1`, for which the RP-LC retention time stood at 914 s.

`COc1cc(Cl)c(C)cc1N1C=C(C#N)S(=O)(=O)c2ccc(F)cc21` displayed an RP-LC retention time of 972 s.

Regarding `Cc1c(Cl)cccc1NC(=O)N(C)CC1CCOCC1`, the RP-LC retention time is 750 s.

Consider `O=C(NCc1ccccc1F)C1=C2CCCN2c2ccc(F)cc2S1(=O)=O`, for which the RP-LC retention time was 868 s.

Consider `Cc1ccc(-c2nc(-c3cccc(-c4ccnn4C)c3)no2)cc1F`, for which the RP-LC retention time worked out at 1250 s.

On to `COc1ccc(Cl)cc1C(=O)Nc1ccc(-c2nc(C)no2)cc1`, for which the RP-LC retention time was 719 s.

Consider `CN(C)c1ccc(-c2noc(C3CC(=O)N(c4ccc5c(c4)OCCO5)C3)n2)cc1` (stereo not given), for which the RP-LC retention time was found to be 920 s.

For the compound `CCn1c(=O)c2ccccc2n(Cc2nc(-c3ccc(OC)c(OC)c3)no2)c1=O`, the RP-LC retention time is 920 s.

`CCCCN(C(=O)c1noc2c1CC(C)CC2)C1CCN(C(C)=O)CC1` (stereo not given) registered an RP-LC retention time of 895 s.

Consider `COc1ccc(C2Cn3nnc(-c4nc(-c5ccc(F)c(Br)c5)no4)c3CO2)cc1` (stereo not given), for which the RP-LC retention time is 1180 s.

`CC1CCN(C(=O)c2ccc3c(c2)n(C)c(=O)c2ccnn23)CC1` gave an RP-LC retention time of 587 s.

Regarding `COc1ccccc1OCC(O)Cn1c(C2CC(=O)N(c3ccccc3)C2)nc2ccccc21` (stereo not given), the RP-LC retention time was 736 s.

Compound `O=C(Cn1c(=O)c(=O)n(Cc2ccccc2)c2ncccc21)NCCc1ccco1` registered an RP-LC retention time of 797 s.

For `CC(C)OC(=O)Cn1nc(-c2nc(-c3ccc(Cl)cc3)no2)ccc1=O`, the RP-LC retention time came out at 1080 s.

In turn, `COc1ccc(CC(=O)Nc2cc(-c3cn4cccnc4n3)ccc2OC)cc1` displayed an RP-LC retention time of 675 s.

In turn, `CC1CCN(CCNS(=O)(=O)c2ccccc2-c2nc(-c3ccc(F)cc3)no2)CC1` displayed an RP-LC retention time of 752 s.

`Cc1ccc(C(C)NC(=O)Cn2cc(-c3noc(-c4cccnc4)n3)nc2C)cc1` (stereo not given) had an RP-LC retention time of 715 s.

For `CCOC(=O)C1=C(CN2CCCCC2)NC(=O)NC1c1ccc(OC(C)C)cc1` (stereo not given), the RP-LC retention time came out at 646 s.

In the case of `CC1CCN(CC2CCCCCN2C(=O)Nc2ccc3c(c2)OCCO3)CC1` (stereo not given), the RP-LC retention time came to 684 s.

Regarding `CSc1cccc(NC(=O)NCCNc2nc(C)cc(N(C)C)n2)c1`, the RP-LC retention time is 583 s.

`CCCNC(=O)C1CCN(c2nc3ccsc3c(=O)n2-c2ccc(C)cc2)CC1` returned an RP-LC retention time of 756 s.

`CCN(CC)CCNC(=O)c1cc(S(=O)(=O)N2CCCCCC2)ccc1Cl` returned an RP-LC retention time of 656 s.

`CCS(=O)(=O)c1cccc(-c2cc(C(=O)NC3CCN(C)CC3)c(C)c3[nH]c4ncc(C)cc4c23)c1` showed an RP-LC retention time of 645 s.

In turn, `CCn1c(CCNC(=O)c2ccc3c(c2)OCO3)nc2cccnc21` showed an RP-LC retention time of 599 s.

Consider `COc1cccc2c(Nc3cccc(C)c3)cc(C(=O)N3CCSCC3)nc12`, for which the RP-LC retention time came out at 696 s.

`CCc1nnc(-c2cc(NC(=O)c3ccnn3C)c(C)s2)o1` displayed an RP-LC retention time of 774 s.

`C[C@H]1CN(C(=O)c2cc(F)cc(F)c2)C[C@@H]1c1nc(-c2cccnc2)no1`: the RP-LC retention time is 795 s.

The compound `CCOc1ccc(-c2noc(C3CC(=O)N(c4cc(Cl)ccc4OC)C3)n2)cc1` (stereo not given) returned an RP-LC retention time of 1040 s.

In the case of `COc1ccc(NC(=O)Cc2csc3nc(-c4cccc(Br)c4)cn23)cc1`, the RP-LC retention time amounted to 937 s.

`CCN1CCCn2cc(S(=O)(=O)Nc3cc(F)ccc3C)cc2C1=O` yielded an RP-LC retention time of 729 s.

With `CCn1c(=O)c2cc(C(N)=O)nn2c2ccccc21`, the RP-LC retention time was found to be 653 s.

The compound `COc1ccccc1-c1nnc(-c2cccc(S(=O)(=O)N3CCOCC3)c2)o1` returned an RP-LC retention time of 802 s.

On to `Cc1ncsc1C1N(C2CCN(Cc3cn(C)c4ccccc34)CC2)C(=O)C12CCCC2` (stereo not given), for which the RP-LC retention time is 693 s.

In turn, `Cc1ccc(-c2nnc(-c3cccc(S(=O)(=O)N4CCSCC4)c3)o2)cc1` gave an RP-LC retention time of 1100 s.

As to `CC1Oc2ccccc2N(CC(=O)N2CCCN(c3cc(=O)n(C(C)C)c(=O)n3C(C)C)CC2)C1=O` (stereo not given), the RP-LC retention time was determined as 845 s.

Consider `O=C(NC(c1ccccc1)c1nnc(N2CCCCC2)o1)c1ccco1` (stereo not given), for which the RP-LC retention time stood at 774 s.

The compound `Cc1ccc(-c2nc(-c3ccc4nnc(C)n4c3)no2)c(C)c1` gave an RP-LC retention time of 1140 s.

For `O=c1n(CCOc2ccc(F)cc2)nc2ccc(S(=O)(=O)N3CCCC3)cn12`, the RP-LC retention time is 859 s.

`CC(=O)Nc1ccc(NC(=O)c2ccc3noc(-c4ccc(Cl)cc4)c3c2)cc1`: the RP-LC retention time was 817 s.

Take `Cc1ccccc1-n1c(SCc2nc(-c3ccccc3)no2)nc2cc3c(cc2c1=O)OCO3`: the RP-LC retention time was 1190 s.

`COc1ccc(NC(=O)N2CCN(Cc3cn(C)c4ccccc34)CC2)cc1`: the RP-LC retention time came out at 658 s.

Regarding `CCCNC(=O)C1CCN(c2ccc(SCC(=O)Nc3ccc(C(F)(F)F)cc3)nn2)CC1`, the RP-LC retention time amounted to 728 s.

Compound `CN1CCN(c2ccc(CNC(=O)CN3CCN(Cc4ccc(F)cc4)C3=O)cc2)CC1` had an RP-LC retention time of 599 s.

For the compound `COc1ccc(CNC(=O)c2ccc3c(=O)n(-c4ccccc4)c(N4CCCC4)nc3c2)c(OC)c1`, the RP-LC retention time came out at 879 s.

In turn, `Cc1nnc2sc(SCc3ccc(Cl)cc3Cl)nn2c1=O` displayed an RP-LC retention time of 869 s.

Take `CCCCN1CCN(C(=O)c2cc(NC(=O)C3CCC3)cc3nc(C)ccc23)CC1`: the RP-LC retention time was determined as 551 s.

The record behind these values is the METLIN SMRT retention time set (Domingo-Almenara et al. 2019).
